Series [1] can be described thus: hydrolysis equilibrium / dissociation of compound I to free chlorine. The class given is physicochemical.
Series [2] relates to Staphylococcus aureus. Briefly: disinfection at low concentration in aqueous solution. The series is classed as cell-based. Conditions: 25 mg/L in aqueous solution; dependent on pH. From the text:
In various embodiments provided herein, the N-halamine is 1-chloro-2,2,5,5-tetramethyl-4-imidazolidinone (“compound I”). Compound I is a stable N-halamine both in aqueous solution and in the solid state as long as it is not exposed to direct sunlight or extensive UV radiation. At ambient temperature, the hydrolysis equilibrium constant of compound I to produce its precursor 2,2,5,5-tetramethyl-4-imidazolidinone and “free chlorine” (HOCl) is lower than 10^−11. At low concentration in aqueous solution (e.g., 25 mg/L), long contact times (typically between 1-10 hours, dependent on pH) are required to obtain a 6-log reduction of Staphylococcus aureus. […] Furthermore, compound I is inexpensive and may be prepared according to the procedures described in U.S. Pat. No. 5,057,612, U.S. Pat. No. 5,126,057, or Tsao et al. (“Novel N-halamine Disinfectant Compounds,” Biotechnol. Prog., 1991; 7:60), the disclosures of all which are incorporated herein in their entirety.

The nature of series [3]: solubility. The series is classed as physicochemical. Particulars: 22° C. From the text: The precursor 2,2,5,5-tetramethyl-4-imidazolidinone can be prepared according to the method outlined in Tsao or in Worley based upon oxidation of the corresponding thione with hydrogen peroxide in basic solution. The thione can be prepared by the method of Christian (see “4-imidazolidinethiones,” J. Org. Chem., 1957; 22:396), which entails reaction of sodium cyanide, ammonium chloride, ammonium sulfide, and acetone in aqueous solution. […] Compound I in its pure form contains 20.1 percent by weight oxidative chlorine. […] However, the compound is much more soluble in ethyl or isopropyl alcohol, such that a solution greater than 5000 mg/L oxidative chlorine can easily be obtained.

The nature of series [4]: storage (shelf-life) stability of oxidative chlorine on impregnated fabrics, iodometric/thiosulfate titration. The series is classed as physicochemical. Conditions: for Chlorine loading, dark storage / Chlorine loading, fluorescent light: 22 g/m^2 fabric, 22° C. On the procedure: A modified iodometric/thiosulfate titration procedure was used to determine the active chlorine content on the fabrics impregnated with compound I (see, for example, Worley et al., “Novel N-halamine Siloxane Monomers and Polymers for Preparing Biocidal Coatings,” Surf Coat. Int., Part B, 2005; 88:93, herein incorporated by reference in its entirety). Cl^+% was calculated by the equation given below, where Cl^+% is the weight percent of the oxidative chlorine, N and V are
[formula] the normality (equiv/L) and volume (L) of the Na2S2O3 (titrant), respectively, and W is the weight of the polypropylene fabric in grams.
Storage or shelf-life stability of the impregnated 22 g/m^2 fabrics was evaluated in the instant example. Fabric samples were stored in a cabinet (e.g., a dark environment) without exposure to fluorescent light and on the laboratory bench (e.g., under fluorescent light) at room temperature. The stability of the chlorine content over time was measured for 24 weeks. The stabilities of the fabrics impregnated with compound I with a basis weight of 22 g/m^2 were determined at 22° C. by measuring the amount of remaining chlorine on the fabrics by using the standard iodometric/thiosulfate titration procedure.

Series [5] deals with Escherichia coli O157:H7 ATCC 43895. The series can be described thus: sandwich test, wet wipes. Conditions: contact time 1 min, inoculum 6.50. The series is classed as cell-based. How it is done: (§1) In the first test, CVS brand commercial wet wipes were first dried at 45° C. for 1 hour before impregnation with solutions of compound I. Different concentrations (wt %) of compound I were prepared in ethyl alcohol, and the wipes were soaked in the solutions for 5 minutes. After soaking in the solutions, each wipe was mounted between two filter papers, and a weight of 290 grams was placed uniformly over the stack. At the end of a 30 second period, the wet wipes were placed in closed vials to prevent further loss of solvent.
(§2) For antibacterial testing, CVS brand commercial wipes were used as received as controls and wipes impregnated with compound I at a concentration of 1.0 wt % in ethyl alcohol were prepared as described above. […] After the plates were incubated at 37° C. for 24 hours, viable bacterial colonies were counted for the biocidal efficacy analysis.

Series [6] concerns Staphylococcus aureus ATCC 6538. Briefly: sandwich test, wet wipes. The class given is cell-based. Particulars: contact time 1 min, inoculum 6.35. How it is done: as §1, §2

SMILES strings stand for the structures. In brackets after ≈: the same amount, converted by molar mass.

Take `CC1(C)NC(=O)C(C)(C)N1Cl` [Compound I, 1-chloro-2,2,5,5-tetramethyl-4-imidazolidinone]: the “dissociation constant (chlorine release)” value in series [1] is listed as “lower than 10^−11”. Besides, the “hydrolysis equilibrium constant to produce 2,2,5,5-tetramethyl-4-imidazolidinone and free chlorine (HOCl)” value in series [1] (ambient temperature) is listed as “lower than 10^−11”. Moreover, the “contact time required to obtain a 6-log reduction” value in series [2] is on record as 1-10 hours. In addition, the solubility in water in series [3] turned out to be 1930 µg/mL (≈ 10.9 mM). Moreover, the “weight percent of oxidative chlorine under saturated conditions” value in series [3] (water) worked out at 0.0388 weight percent. Besides, the “Chlorine loading, dark storage” value in series [4] (2 weeks) is on record as 0.37 wt % Cl^+; in series [4] (3 weeks), 0.40 wt % Cl^+; in series [4] (5 weeks), 0.37 wt % Cl^+; in series [4] (8 weeks), 0.40 wt % Cl^+; in series [4] (12 weeks) it was 0.42 wt % Cl^+; in series [4] (24 weeks), 0.41 wt % Cl^+. Besides, the “Chlorine loading, dark storage” value in series [4] (Initial) was found to be 0.36 wt % Cl^+. Besides, the “Chlorine loading, fluorescent light” value in series [4] (2 weeks) amounted to 0.05 wt % Cl^+; in series [4] (3 weeks), 0 wt % Cl^+; in series [4] (5 weeks) it was 0 wt % Cl^+; in series [4] (8 weeks), 0 wt % Cl^+; in series [4] (12 weeks) it was 0 wt % Cl^+; in series [4] (24 weeks), 0 wt % Cl^+. The “Chlorine loading, fluorescent light” value in series [4] (Initial) came to 0.40 wt % Cl^+. Besides, the “chlorine loss on storage” value in series [4] (fabrics exposed to fluorescent light, after 3 weeks of exposure) was “the remaining chlorine was lost”; in series [4] (fabrics exposed to fluorescent light, within a 2 week time period), “Almost all of the initial chlorine loading was lost”; in series [4] (fabrics stored in dark environmental conditions, 6 month time period), “no significant chlorine loss”. Moreover, the “Bacterial Reduction (logs) E. coli O157:H7” value in series [5] is reported as 6.5 logs. For the same molecule, the “Bacterial Reduction (logs) S. aureus” value in series [6] is 6.35 logs.
